Measured values: PubChem BioAssay AID330 (DTP/NCI, 2004)
Values joined by “and” are separate entries in the source; they are usually repeats but may differ in a detail not shown here. Equal values may be shown once. Toxic doses and inconclusive results are not listed. Rule for the calls: active = survival T/C of 150% or more; inactive = T/C below 125% in these data.

Tested on: P388 leukemia ip, CD2F1 mice, survival T/C
Test: NCI In Vivo Anticancer Drug Screen. Data for tumor model P388 Leukemia (intraperitoneal) in CD2F1 (CDF1) mice
Details: endpoint: median survival time, higher = longer survival
Method in brief: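 Mice carrying the transplanted tumor received test compound or vehicle. Survival was recorded in each group, and the value is the treated-group measurement divided by that of the vehicle-treated control group.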

[1] = dose: 50.0 mg/kg/injection, schedule: Q01DX009 (ip), vehicle: saline
[2] = dose: 100.0 mg/kg/injection, schedule: Q01DX009 (ip), vehicle: saline
[3] = dose: 200.0 mg/kg/injection, schedule: Q01DX009 (ip), vehicle: saline
[4] = dose: 60.0 mg/kg/injection, schedule: Q01DX005 (ip), vehicle: saline with Tween-80
[5] = dose: 120.0 mg/kg/injection, schedule: Q01DX005 (ip), vehicle: saline with Tween-80
[6] = dose: 240.0 mg/kg/injection, schedule: Q01DX005 (ip), vehicle: saline with Tween-80
[7] = dose: 50.0 mg/kg/injection, schedule: Q01DX009 (ip), vehicle: saline with Tween-80
[8] = dose: 100.0 mg/kg/injection, schedule: Q01DX009 (ip), vehicle: saline with Tween-80
[9] = dose: 200.0 mg/kg/injection, schedule: Q01DX009 (ip), vehicle: saline with Tween-80
[10] = dose: 100.0 mg/kg/injection, schedule: Q04DX003 (ip), vehicle: saline
[11] = dose: 200.0 mg/kg/injection, schedule: Q04DX003 (ip), vehicle: saline
[12] = dose: 400.0 mg/kg/injection, schedule: Q04DX003 (ip), vehicle: saline
[13] = dose: 25.0 mg/kg/injection, schedule: Q01DX009 (ip), vehicle: saline with Tween-80
[14] = dose: 25.0 mg/kg/injection, schedule: Q01DX009 (ip), vehicle: Klucel (hydroxypropylcellulose) (HPC)
[15] = dose: 50.0 mg/kg/injection, schedule: Q01DX009 (ip), vehicle: Klucel (hydroxypropylcellulose) (HPC)
[16] = dose: 100.0 mg/kg/injection, schedule: Q01DX009 (ip), vehicle: Klucel (hydroxypropylcellulose) (HPC)
[17] = dose: 200.0 mg/kg/injection, schedule: Q01DX009 (ip), vehicle: Klucel (hydroxypropylcellulose) (HPC)
[18] = dose: 25.0 mg/kg/injection, schedule: Q01DX009 (ip), vehicle: saline

Measured: T/C

Fc1ccccc1/C=C/c1ccnnc1
inactive: [1] 94 % of control | [2] 95 % of control | [3] 103 % of control

Cc1cc(=O)oc2cc(OCc3c(F)cccc3Cl)ccc12
inactive: [4] 97 % of control | [5] 90 % of control | [6] 91 % of control

CCCCC1CCC(=O)NC1=O (configuration not stated)
inactive: [4] 107 % of control | [5] 103 % of control | [6] 107 % of control

Cc1c(C)[n+]([O-])c(-c2ccc(N(C)C)cc2)n1O
inactive: [7] 100 % of control | [8] 91 % of control | [9] 94 % of control

C=C(C[P+](c1ccccc1)(c1ccccc1)c1ccccc1)C(=O)OCC
inactive: dose: 3.12 mg/kg/injection, schedule: Q01DX001 (ip), vehicle: saline 111 % of control | dose: 6.25 mg/kg/injection, schedule: Q01DX001 (ip), vehicle: saline 109 % of control | dose: 12.5 mg/kg/injection, schedule: Q01DX001 (ip), vehicle: saline 113 % of control | dose: 12.5 mg/kg/injection, schedule: Q01DX001 (ip), vehicle: suspension in saline 117 % of control

COC(=O)/C=C1\C(=O)OCC1(C)C
inactive: [10] 100 % of control | [11] 104 % of control | [12] 103 % of control

O=C(CCl)NC(Cc1ccccc1)C(=O)O (configuration not stated)
inactive: [13] 99 % of control | [7] 99 % of control and 89 % of control | [8] 100 % of control and 104 % of control | [9] 94 % of control | dose: 400.0 mg/kg/injection, schedule: Q01DX009 (ip), vehicle: saline with Tween-80 103 % of control

CC(=O)Nc1nc(CCl)cs1
inactive: [14] 100 % of control | [15] 102 % of control | [16] 103 % of control | [17] 110 % of control

O=C1COc2ccccc2C(=O)C1
inactive: [1] 109 % of control | [2] 101 % of control | [3] 101 % of control

C/C([O-])=C(/c1nc(-c2ccc([N+](=O)[O-])o2)no1)[n+]1cc(C)ccc1C
inactive: dose: 6.25 mg/kg/injection, schedule: Q01DX009 (ip), vehicle: saline with Tween-80 92 % of control | dose: 12.5 mg/kg/injection, schedule: Q01DX009 (ip), vehicle: saline with Tween-80 94 % of control | [13] 97 % of control | [7] 94 % of control

C1=CN2C3=NCCN3C3=NCCN3C2c2ccccc21 (configuration not stated)
inactive: dose: 12.5 mg/kg/injection, schedule: Q04DX002 (ip), vehicle: Klucel (hydroxypropylcellulose) (HPC) 102 % of control | dose: 25.0 mg/kg/injection, schedule: Q04DX002 (ip), vehicle: Klucel (hydroxypropylcellulose) (HPC) 99 % of control | dose: 50.0 mg/kg/injection, schedule: Q04DX002 (ip), vehicle: Klucel (hydroxypropylcellulose) (HPC) 102 % of control

O=[N+]([O-])c1cnc[nH]1
inactive: [14] 105 % of control | [15] 100 % of control and 101 % of control | [16] 100 % of control and 105 % of control | [17] 99 % of control and 100 % of control | dose: 360.0 mg/kg/injection, schedule: Q01DX001 (ip), vehicle: saline with Tween-80 95 % of control | dose: 600.0 mg/kg/injection, schedule: Q01DX001 (ip), vehicle: saline with Tween-80 100 % of control and 92 % of control | dose: 1000.0 mg/kg/injection, schedule: Q01DX001 (ip), vehicle: saline with Tween-80 99 % of control and 106 % of control

CCCCC([Se])=NCCC(C)C
inactive: dose: 6.25 mg/kg/injection, schedule: Q01DX009 (ip), vehicle: Klucel (hydroxypropylcellulose) (HPC) 105 % of control | dose: 12.5 mg/kg/injection, schedule: Q01DX009 (ip), vehicle: Klucel (hydroxypropylcellulose) (HPC) 108 % of control | [14] 93 % of control

O=c1cncc[nH]1
inactive: dose: 12.5 mg/kg/injection, schedule: Q01DX009 (ip), vehicle: saline 105 % of control | [18] 108 % of control | [1] 108 % of control | [2] 109 % of control | [3] 96 % of control

Cn1cccc/c1=N\N
inactive: dose: 100.0 mg/kg/injection, schedule: Q04DX002 (ip), vehicle: saline 100 % of control | dose: 200.0 mg/kg/injection, schedule: Q04DX002 (ip), vehicle: saline 99 % of control

CCCN(CCC)c1cc(=O)nc2ccccn12
inactive: dose: 60.0 mg/kg/injection, schedule: Q01DX005 (ip), vehicle: saline 100 % of control | dose: 120.0 mg/kg/injection, schedule: Q01DX005 (ip), vehicle: saline 106 % of control | dose: 240.0 mg/kg/injection, schedule: Q01DX005 (ip), vehicle: saline 106 % of control

Cc1nc(C(=O)O)cc(Cl)c1C
inactive: dose: 12.5 mg/kg/injection, schedule: Q01DX009 (ip), vehicle: distilled water + Tween-80 100 % of control | dose: 25.0 mg/kg/injection, schedule: Q01DX009 (ip), vehicle: distilled water + Tween-80 100 % of control | dose: 50.0 mg/kg/injection, schedule: Q01DX009 (ip), vehicle: distilled water + Tween-80 96 % of control | dose: 100.0 mg/kg/injection, schedule: Q01DX009 (ip), vehicle: distilled water + Tween-80 100 % of control | dose: 200.0 mg/kg/injection, schedule: Q01DX009 (ip), vehicle: distilled water + Tween-80 96 % of control

Cc1cc2c(=O)cc(-c3ccccc3)oc2c(C(=O)O)c1C
active: [6] 161 % of control
inactive: dose: 30.0 mg/kg/injection, schedule: Q01DX005 (ip), vehicle: saline with Tween-80 103 % of control | [4] 114 % of control and 118 % of control

CCCCCCCCCCCCNCC(=O)O
inactive: [18] 109 % of control | [1] 113 % of control

O=C1CC23c4ccccc4N4C(=O)CC5OCC=C6CN1C2CC6C5C43 (configuration not stated)
inactive: [4] 101 % of control | [5] 92 % of control | [6] 92 % of control

O=S(=O)(Cc1ccc(Cl)cc1)Cc1ccc(Cl)cc1
inactive: dose: 100.0 mg/kg/injection, schedule: Q04DX003 (ip), vehicle: saline sonified 100 % of control | dose: 200.0 mg/kg/injection, schedule: Q04DX003 (ip), vehicle: saline sonified 100 % of control | dose: 400.0 mg/kg/injection, schedule: Q04DX003 (ip), vehicle: saline sonified 90 % of control

CN(C)C1=CC(=O)NC(c2ccccc2)C1 (configuration not stated)
inactive: dose: 50.0 mg/kg/injection, schedule: Q01DX005 (ip), vehicle: Klucel (hydroxypropylcellulose) (HPC) 102 % of control | dose: 100.0 mg/kg/injection, schedule: Q01DX005 (ip), vehicle: Klucel (hydroxypropylcellulose) (HPC) 99 % of control | dose: 200.0 mg/kg/injection, schedule: Q01DX005 (ip), vehicle: Klucel (hydroxypropylcellulose) (HPC) 99 % of control

COC(=O)c1cn(C(C)=O)c(C)c1C(=O)OC
inactive: dose: 100.0 mg/kg/injection, schedule: Q01DX001 (ip), vehicle: saline with Tween-80 100 % of control | dose: 200.0 mg/kg/injection, schedule: Q01DX001 (ip), vehicle: saline with Tween-80 95 % of control | dose: 400.0 mg/kg/injection, schedule: Q01DX001 (ip), vehicle: saline with Tween-80 104 % of control

Brc1nc(-[n+]2ccccc2)[n-]c1Br
inactive: [10] 101 % of control | [11] 99 % of control | [12] 100 % of control

COC(=O)C1(C)CCCC1=O (configuration not stated)
inactive: dose: 50.0 mg/kg/injection, schedule: Q01DX009 (ip), vehicle: other 96 % of control | dose: 100.0 mg/kg/injection, schedule: Q01DX009 (ip), vehicle: other 95 % of control | dose: 200.0 mg/kg/injection, schedule: Q01DX009 (ip), vehicle: other 99 % of control

CN(C)CC1CCC2=C(C1=O)C(c1ccc(Cl)c(Cl)c1)C1=C(CCC(CN(C)C)C1=O)O2 (configuration not stated)
inactive: dose: 60.0 mg/kg/injection, schedule: Q01DX005 (ip), vehicle: suspension in saline 100 % of control | dose: 120.0 mg/kg/injection, schedule: Q01DX005 (ip), vehicle: suspension in saline 106 % of control | dose: 240.0 mg/kg/injection, schedule: Q01DX005 (ip), vehicle: suspension in saline 99 % of control

c1ccc(NC2=NCCO2)nc1
inactive: dose: 50.0 mg/kg/injection, schedule: Q04DX003 (ip), vehicle: saline with Tween-80 100 % of control | dose: 100.0 mg/kg/injection, schedule: Q04DX003 (ip), vehicle: saline with Tween-80 95 % of control | dose: 200.0 mg/kg/injection, schedule: Q04DX003 (ip), vehicle: saline with Tween-80 100 % of control

Cc1[nH]c(C)c2c(=O)ccsc12
inactive: [4] 90 % of control | [5] 99 % of control

COc1ccc(-c2cc3ccccc3c(=O)n2Cc2ccccc2)cc1
inactive: [4] 100 % of control | [5] 103 % of control | [6] 94 % of control
